Experimental data taken from US5556744A, “Methods and compositions for diagnosing and treating certain HIV infected patients” (The Trustees of the University of Pennsylvania, priority 1994, dated 1996).

Tested on: maternal HIV+ sera (antibodies)
Test: RIA / ELISA binding of maternal HIV+ sera to gp120 and gp41 peptides (Example 3)
Design: species or system human
Summary of the method: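 Peptides were coated at 10 μg/ml in carbonate buffer pH 9.6 and blocked with 1% BSA. Sera at 1:50 and 1:500 were incubated overnight at 4°C and detected with ¹²⁵I anti-human IgG (RIA) or HRP/TMB at OD450 (ELISA). Specific binding was taken as peptide minus no-peptide wells, scored as a ratio to normal human serum.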

[1] = Serum No. 1, Non-Transmission Group
[2] = Serum No. 2, Non-Transmission Group
[3] = Serum No. 3, Non-Transmission Group
[4] = Serum No. 4, Transmission Group
[5] = Serum No. 5, Transmission Group
[6] = Serum No. 6, Non-Transmission Group
[7] = Serum No. 7, Non-Transmission Group
[8] = Serum No. 8, Non-Transmission Group
[9] = Serum No. 9, Non-Transmission Group
[10] = Serum No. 10, Transmission Group
[11] = Serum No. 11, Non-Transmission Group
[12] = Serum No. 12, Non-Transmission Group
[13] = Serum No. 13, Transmission Group
[14] = Serum No. 14, Transmission Group
[15] = Serum No. 15, Transmission Group
[16] = Serum No. 16, Non-Transmission Group
[17] = Serum No. 17, Non-Transmission Group
[18] = Serum No. 18, Non-Transmission Group
[19] = Serum No. 19, Transmission Group
[20] = Serum No. 20, Non-Transmission Group

Row | Sequence | Binding of maternal HIV+ serum to peptide (sera/NHS ratio) [1] | Binding of maternal HIV+ serum to peptide (sera/NHS ratio) [2] | Binding of maternal HIV+ serum to peptide (sera/NHS ratio) [3] | Binding of maternal HIV+ serum to peptide (sera/NHS ratio) [4] | Binding of maternal HIV+ serum to peptide (sera/NHS ratio) [5] | Binding of maternal HIV+ serum to peptide (sera/NHS ratio) [6] | Binding of maternal HIV+ serum to peptide (sera/NHS ratio) [7] | Binding of maternal HIV+ serum to peptide (sera/NHS ratio) [8] | Binding of maternal HIV+ serum to peptide (sera/NHS ratio) [9] | Binding of maternal HIV+ serum to peptide (sera/NHS ratio) [10] | Binding of maternal HIV+ serum to peptide (sera/NHS ratio) [11] | Binding of maternal HIV+ serum to peptide (sera/NHS ratio) [12] | Binding of maternal HIV+ serum to peptide (sera/NHS ratio) [13] | Binding of maternal HIV+ serum to peptide (sera/NHS ratio) [14] | Binding of maternal HIV+ serum to peptide (sera/NHS ratio) [15] | Binding of maternal HIV+ serum to peptide (sera/NHS ratio) [16] | Binding of maternal HIV+ serum to peptide (sera/NHS ratio) [17] | Binding of maternal HIV+ serum to peptide (sera/NHS ratio) [18] | Binding of maternal HIV+ serum to peptide (sera/NHS ratio) [19] | Binding of maternal HIV+ serum to peptide (sera/NHS ratio) [20] | further results
1 | TRKSIRIQRGPGRAF [Peptide 107] | ++ (which value is greater than 3) | ++ (which value is greater than 3) | ++ (which value is greater than 3) | ++ (which value is greater than 3) | ++ (which value is greater than 3) | ++ (which value is greater than 3) | + (which value is between 2 to 3) | ++ (which value is greater than 3) | ++ (which value is greater than 3) | + (which value is between 2 to 3) | ++ (which value is greater than 3) | ++ (which value is greater than 3) | ++ (which value is greater than 3) | ++ (which value is greater than 3) | - (specific OD450 or cpm of sera sample binding to peptide divided by the specific OD450 or cpm of NHS sample binding to peptide, which value is less than 2) | ++ (which value is greater than 3) | ++ (which value is greater than 3) | ++ (which value is greater than 3) | ++ (which value is greater than 3) | ++ (which value is greater than 3) | Percentage of sera samples demonstrating binding to peptide, non-transmitter (Non-transmitter group, n = 13): 100%; Percentage of sera samples demonstrating binding to peptide, transmitter (Transmitter / transmission group, n = 7): 85.7%; Percent of the maternal serum samples that bound to the peptide (all 20 samples): 95%
2 | KLICTTQVPWNASWS [Peptide 123] | + (which value is between 2 to 3) | - (specific OD450 or cpm of sera sample binding to peptide divided by the specific OD450 or cpm of NHS sample binding to peptide, which value is less than 2) | - (specific OD450 or cpm of sera sample binding to peptide divided by the specific OD450 or cpm of NHS sample binding to peptide, which value is less than 2) | - (specific OD450 or cpm of sera sample binding to peptide divided by the specific OD450 or cpm of NHS sample binding to peptide, which value is less than 2) | - (specific OD450 or cpm of sera sample binding to peptide divided by the specific OD450 or cpm of NHS sample binding to peptide, which value is less than 2) | - (specific OD450 or cpm of sera sample binding to peptide divided by the specific OD450 or cpm of NHS sample binding to peptide, which value is less than 2) | - (specific OD450 or cpm of sera sample binding to peptide divided by the specific OD450 or cpm of NHS sample binding to peptide, which value is less than 2) | - (specific OD450 or cpm of sera sample binding to peptide divided by the specific OD450 or cpm of NHS sample binding to peptide, which value is less than 2) | - (specific OD450 or cpm of sera sample binding to peptide divided by the specific OD450 or cpm of NHS sample binding to peptide, which value is less than 2) | - (specific OD450 or cpm of sera sample binding to peptide divided by the specific OD450 or cpm of NHS sample binding to peptide, which value is less than 2) | - (specific OD450 or cpm of sera sample binding to peptide divided by the specific OD450 or cpm of NHS sample binding to peptide, which value is less than 2) | - (specific OD450 or cpm of sera sample binding to peptide divided by the specific OD450 or cpm of NHS sample binding to peptide, which value is less than 2) | - (specific OD450 or cpm of sera sample binding to peptide divided by the specific OD450 or cpm of NHS sample binding to peptide, which value is less than 2) | - (specific OD450 or cpm of sera sample binding to peptide divided by the specific OD450 or cpm of NHS sample binding to peptide, which value is less than 2) | - (specific OD450 or cpm of sera sample binding to peptide divided by the specific OD450 or cpm of NHS sample binding to peptide, which value is less than 2) | - (specific OD450 or cpm of sera sample binding to peptide divided by the specific OD450 or cpm of NHS sample binding to peptide, which value is less than 2) | - (specific OD450 or cpm of sera sample binding to peptide divided by the specific OD450 or cpm of NHS sample binding to peptide, which value is less than 2) | - (specific OD450 or cpm of sera sample binding to peptide divided by the specific OD450 or cpm of NHS sample binding to peptide, which value is less than 2) | - (specific OD450 or cpm of sera sample binding to peptide divided by the specific OD450 or cpm of NHS sample binding to peptide, which value is less than 2) | - (specific OD450 or cpm of sera sample binding to peptide divided by the specific OD450 or cpm of NHS sample binding to peptide, which value is less than 2) | –
3 | ATEKLWVTVYYGVPVWLEATTTL [Peptide 60] | - (specific OD450 or cpm of sera sample binding to peptide divided by the specific OD450 or cpm of NHS sample binding to peptide, which value is less than 2) | - (specific OD450 or cpm of sera sample binding to peptide divided by the specific OD450 or cpm of NHS sample binding to peptide, which value is less than 2) | - (specific OD450 or cpm of sera sample binding to peptide divided by the specific OD450 or cpm of NHS sample binding to peptide, which value is less than 2) | - (specific OD450 or cpm of sera sample binding to peptide divided by the specific OD450 or cpm of NHS sample binding to peptide, which value is less than 2) | - (specific OD450 or cpm of sera sample binding to peptide divided by the specific OD450 or cpm of NHS sample binding to peptide, which value is less than 2) | - (specific OD450 or cpm of sera sample binding to peptide divided by the specific OD450 or cpm of NHS sample binding to peptide, which value is less than 2) | - (specific OD450 or cpm of sera sample binding to peptide divided by the specific OD450 or cpm of NHS sample binding to peptide, which value is less than 2) | - (specific OD450 or cpm of sera sample binding to peptide divided by the specific OD450 or cpm of NHS sample binding to peptide, which value is less than 2) | - (specific OD450 or cpm of sera sample binding to peptide divided by the specific OD450 or cpm of NHS sample binding to peptide, which value is less than 2) | - (specific OD450 or cpm of sera sample binding to peptide divided by the specific OD450 or cpm of NHS sample binding to peptide, which value is less than 2) | - (specific OD450 or cpm of sera sample binding to peptide divided by the specific OD450 or cpm of NHS sample binding to peptide, which value is less than 2) | - (specific OD450 or cpm of sera sample binding to peptide divided by the specific OD450 or cpm of NHS sample binding to peptide, which value is less than 2) | - (specific OD450 or cpm of sera sample binding to peptide divided by the specific OD450 or cpm of NHS sample binding to peptide, which value is less than 2) | - (specific OD450 or cpm of sera sample binding to peptide divided by the specific OD450 or cpm of NHS sample binding to peptide, which value is less than 2) | - (specific OD450 or cpm of sera sample binding to peptide divided by the specific OD450 or cpm of NHS sample binding to peptide, which value is less than 2) | - (specific OD450 or cpm of sera sample binding to peptide divided by the specific OD450 or cpm of NHS sample binding to peptide, which value is less than 2) | - (specific OD450 or cpm of sera sample binding to peptide divided by the specific OD450 or cpm of NHS sample binding to peptide, which value is less than 2) | - (specific OD450 or cpm of sera sample binding to peptide divided by the specific OD450 or cpm of NHS sample binding to peptide, which value is less than 2) | - (specific OD450 or cpm of sera sample binding to peptide divided by the specific OD450 or cpm of NHS sample binding to peptide, which value is less than 2) | - (specific OD450 or cpm of sera sample binding to peptide divided by the specific OD450 or cpm of NHS sample binding to peptide, which value is less than 2) | Binding of maternal sera to peptide (in words) (Example 3): No binding
